Results as given in publication PMC12040169 (PLOS Biology, 2025).

Experiment: in vitro
Conditions: human, hela cells, % viability

Row | Structure (SMILES) | viability at 28.5 h, 10 µM
1 | CCCC(C)N(C)C(=O)CCc1c(C)nc(-c2cccnc2)[nH]c1=O (centres unmarked) [CBK304965] | 106%
2 | NC(=O)c1cc(-c2ccccc2)sc1NC(=O)C(Cc1ccccc1)N1C(=O)c2ccccc2C1=O (centres unmarked) [CBK265843] | 104%
3 | O=C(NCCCn1ccnc1)c1cc2ncc(Br)cn2n1 [CBK277080] | 97.6%
4 | Cn1c(=O)c2c(nc(NCCO)n2CCc2ccccc2)n(C)c1=O [CBK267497] | 87.8%
5 | CCOC(=O)c1c(C(C)(C)C)oc2ccc(OCC(=O)c3ccc(OC)cc3)cc12 [CBK264950] | 123%
6 | CCOc1ccccc1Nc1c([N+](=O)[O-])nn(-c2ccc(OC)cc2)[n+]1[O-] [CBK268411] | 90.2%
7 | CN(CCC1CCOCC1)c1nc2c(c(=O)[nH]1)Cc1ccccc1OC2 [CBK306622] | 96.2%
8 | Cc1ccnc2nc(C(=O)OC(C)C(=O)NC3CC3)nn12 (centres unmarked) [CBK304998] | 92.5%
9 | CC(C)n1ncc2c1NC(=O)CC2c1ccc2c(c1)n(C)c(=O)n2C (centres unmarked) [CBK287926] | 108%
10 | COc1ccc(C)cc1NC(=O)CCN1CCN(CCO)CC1 [CBK264199] | 97.4%
11 | COc1c(C(=O)Nc2ccc(CN3CCOCC3)cc2)cc2ccccc2c1Br [CBK268593] | 103%
12 | Cc1cc(C)n(CC(O)CN(c2ccccc2)S(=O)(=O)c2ccccc2)n1 (centres unmarked) [CBK264469] | 118%
13 | O=C(NCCCO)c1cc2ccccc2[nH]1 [CBK267638] | 87.9%
14 | COc1ccc(C)cc1C1(CNC(=O)C2CCC(=O)N2)CCOCC1 (centres unmarked) [CBK304967] | 94.8%
15 | Cc1cnn(C)c1CN1CCNC(=O)C1c1ccccc1C(F)(F)F (centres unmarked) [CBK304260] | 86.2%
16 | Cc1ccc(C)c(OCCNS(=O)(=O)c2cc([N+](=O)[O-])ccc2C)c1 [CBK267393] | 87.1%
17 | COc1nccnc1NS(=O)(=O)c1ccc(Nc2c([N+](=O)[O-])cc([N+](=O)[O-])c3nonc23)cc1 [CBK261441] | 87.5%
18 | CC(=O)N1CCc2cc(NCc3nc4ccccc4n3C(C)c3ccccc3)ccc21 (centres unmarked) [CBK285621] | 81.7%

Row | Structure (SMILES) | viability at 28.5 h, 10 µM
19 | COc1ccccc1C1CCN(C(=O)c2ccc(C(C)(C)C)cc2)CC1 [CBK086469] | 84.3%
20 | O=C(Nc1cccc(CCc2ccccn2)c1)c1ccc([N+](=O)[O-])cc1 [CBK269653] | 86.9%
21 | C[C@@H]1CN(C(=O)c2ccc3[nH]cnc3c2)C[C@H](C)O1 [CBK200120] | 106%
22 | COc1ccc([C@@H](O)[C@H]2CCCNC2)cc1 [CBK282298] | 86.3%
23 | CCCN1CCN(c2ncc(CNS(=O)(=O)c3ccc(Cl)cc3)cn2)CC1 [CBK010261] | 101%
24 | O=c1oc2ccccc2n1C1CCN(Cc2nc3ccccc3n2Cc2ccccc2)CC1 [CBK286176] | 102%
25 | CN(CC(O)CN1CCOCC1)C(=O)c1cc2sccc2[nH]1 (centres unmarked) [CBK306437] | 95.8%
26 | Cc1csc2c(N3CCSCC3)ncnc12 [CBK009169] | 100%
27 | COc1cccc2sc(Nc3nc4ccc(NC(C)=O)cc4s3)nc12 [CBK287468] | 94.9%
28 | Cc1noc(C)c1C(=O)NC(Cc1ccsc1)c1cccnc1 (centres unmarked) [CBK285100] | 90.3%
29 | CCCn1cnnc1C(C)NC(=O)Nc1ccnn1CC1CCCCC1 (centres unmarked) [CBK306800] | 105%
30 | O=S(=O)(Nc1nc2cc(Cl)ccc2o1)c1ccc(Oc2ccccc2)cc1 [CBK050499] | 97.8%
31 | CCCOC1CCCN(C(=O)c2ccc(-c3ccc(Cl)cn3)cc2)C1 (centres unmarked) [CBK306540] | 89.5%
32 | O=C(O)c1ccc(NC2=NS(=O)(=O)c3ccccc32)cc1 [CBK287084] | 84.4%
33 | CCN1C(=O)CC2(C1=O)C(=O)N(CCCN(C)S(C)(=O)=O)c1ccccc12 (centres unmarked) [CBK075519] | 101%
34 | O=C(NCc1ccc(Cl)cc1)c1cnc2ccc(C#CCO)cc2c1O [CBK017979] | 92.4%
35 | CCCC(=O)c1ccc(S(=O)(=O)N2CCN(Cc3c[nH]nc3-c3cccs3)CC2)cc1 [CBK063160] | 79.6%
